Assay results from US9643950B2, “Solid forms of {s-3-(4-amino-1-oxo-isoindolin-2-yl)(piperidine-3,4,4,5,5-d5)-2,6-dione}” (Concert Pharmaceuticals, Inc., priority 2012, dated 2017).
Converted amounts (≈) assume the structure as drawn. “Also recorded” adds a separate entry of the source. Like-named read-outs stand apart in the source and are kept apart here. Blank lines part the entries; values can stand above or below the compound they belong to.

Experiments:
Format in all cases: physicochemical
[1] = Physical (solid form) stability on storage or stirring, by PXRD; conditions: for Physical stability by PXRD: 40° C./75% RH for 6 days
Experimental: PXRD diffractograms were acquired using PANalytical X'Pert Pro diffractometer on Si zero-background wafers. All diffractograms were collected using a monochromatic Cu Kα (45 kV/40 mA) radiation and a step size of 0.02° 2θ.
Form 1 is a crystalline powder with a PXRD pattern indicated at FIG. 1. FT-Raman (FIG. 2) and FT-IR Spectra (FIG. 3) were also collected. […] HPLC analysis indicated high purity of the material (>99.9% AUC). […] (FIG. 4). The PXRD diffractogram of the material heated past the exothermic event (heating to 261° C. followed by isothermal hold for 7 min) indicates a racemization of D-(S)-lenalidomide, as confirmed by chiral HPLC analyses of a reference material. […] This conclusion is based on two simultaneously run experiments. In one experiment, […] was exposed to 40° C./75% RH. […] Moreover, even this formation of Form 3 may have been at least in part the result of condensation inside of the RH chamber towards the end of the experiment, as a result of which Form 1 became slightly wet.
PXRD (FIG. 6) and PLM microscopy analyses indicate Form 2 to be partially crystalline and phase-impure with amorphous content. Thermal analyses confirmed that the material loses 4.3% wt. upon heating up to 160° C. (FIG. 8). IR analysis of the volatile component released upon heating confirmed water. The loss of water corresponds to broad endothermic (50-100° C.) and exothermic (120-160° C.) events on the DSC trace (FIG. 8), indicating potential dehydration and crystallization, respectively. An FT-Raman spectrum is provided at FIG. 7.

[2] = Visually estimated solubility of Form 1 in an array of solvents
Experimental: Solubility of Form 1 was visually estimated in an array of different solvents. […] Where applicable, the undissolved solids were analyzed by PXRD to verify crystal form. The data are shown in and indicate that the solubility of Form 1 to be relatively low in water and common organic solvents, (<6 mg/mL), very high in dimethylsulfoxide (DMSO; >400 mg/mL), and moderate in water- or DMSO-containing binary solvent systems.
Solubility of Form 1 was visually estimated in an array of diverse solvents. […] Where applicable, the undissolved solids were analyzed by PXRD to verify crystal form. The data are shown in Table 2 and indicate that the solubility of Form 1 is relatively low in water and common organic solvents, (<6 mg/mL), very high in dimethylsulfoxide (DMSO; >400 mg/mL), and moderate in water- or DMSO-containing binary solvent systems.

[3] = Relative stability of Forms 1 and 3 in water/organic mixtures (seeded suspensions)
Experimental: A series of experiments were conducted to assess the relative stability of Forms 1 and 3. […] The suspensions were each seeded with a small amount of Form 3 (˜1 mg) and stirred until a complete form conversion occurred.

[4] = Dynamic vapor sorption (DVS) hygroscopicity
Experimental: DVS experiments were conducted on a Surface Measurement Systems DVS-HT at 25° C. The instrument was operated in step mode and the relative humidity was increased in 10% RH increments from 40% RH to 90% RH, then decreased from 90% RH to 0% RH, then increased from 0% RH to 90% RH, then decreased from 90% RH to 0% RH. An extra step at 75% RH was included in each cycle. The mass equilibrium criterion was set at 0.005% change in mass over time (dm/dt) prior to each humidity level. A minimum step time of 10 minutes and a maximum step time of 240 minutes were specified.

[5] = HPLC analysis of degradation; conditions: material from rapid evaporation of methanol solution (rotovapped at 65° C.)
Experimental: HPLC analyses were conducted with an HP1100 system equipped with a G1131 Quad pump, G1367A autosampler, and G1315B diode array detector. Column: Luna C18(2) (50×2.0 mm, 3 μm). Mobile phase: 100% vol. water (0.05% vol. TFA) to 95% acetonitrile (0.05% vol. TFA) over 8 min and 2 min re-equilibration. Flow rate: 1 mL/min. Detection: 254 nm.

Time physically stable [1]: at least 24 hrs
Form obtained upon stirring in water ([1]; water, 12 hr at 5° C.): Form 3 formed
Structure (SMILES): [2H]C1([2H])C(=O)NC(=O)[C@@]([2H])(N2Cc3c(N)cccc3C2=O)C1([2H])[2H] [Form 2]
Form conversion on storage ([1]; closed vial at room temperature, within 3 weeks): converts to a mixture of Forms 1 and 3; also recorded: converted to Forms 1 and 3

Residual Solid (crystal form of undissolved solids by PXRD) ([2]; 1,4-Dioxane): Form 1
solubility ([2]; 1,4-dioxane, 40 °C, organic solvent or mixture, thermodynamic from solid, read-out: Solubility at 40° C.): > 6000 µg/mL
Residual Solid (crystal form of undissolved solids by PXRD) ([2]; 2-Propanol): Form 1
solubility ([2]; 2-propanol, 40 °C, organic solvent or mixture, thermodynamic from solid, read-out: Solubility at 40° C.): < 1000 µg/mL
Solubility at RT ([2]; DMSO, 20° C.): >400000 µg/mL
Residual Solid (crystal form of undissolved solids by PXRD) ([2]; Dichloromethane): Form 1
Residual Solid (crystal form of undissolved solids by PXRD) ([2]; Ethyl Acetate): Form 1
Residual Solid (crystal form of undissolved solids by PXRD) ([2]; Heptane): Form 1
Residual Solid (crystal form of undissolved solids by PXRD) ([2]; Toluene): Form 1
solubility ([2]; dichloromethane, 40 °C, organic solvent or mixture, thermodynamic from solid, read-out: Solubility at 40° C.): < 1000 µg/mL
solubility ([2]; ethyl acetate, 40 °C, organic solvent or mixture, thermodynamic from solid, read-out: Solubility at 40° C.): < 1000 µg/mL
solubility ([2]; heptane, 40 °C, organic solvent or mixture, thermodynamic from solid, read-out: Solubility at 40° C.): < 1000 µg/mL
solubility ([2]; organic solvent or mixture, thermodynamic from solid, 1,4-Dioxane, 20° C., read-out: Solubility at RT): < 1000 µg/mL
solubility ([2]; organic solvent or mixture, thermodynamic from solid, 2-Propanol: 10% vol. DMSO, 20° C., read-out: Solubility at RT): 1000 to 10000 µg/mL (≈ 3.78 to 37.8 mM)
solubility ([2]; organic solvent or mixture, thermodynamic from solid, 2-Propanol, 20° C., read-out: Solubility at RT): < 1000 µg/mL
solubility ([2]; organic solvent or mixture, thermodynamic from solid, Acetone, 20° C., read-out: Solubility at RT): 1000 to 6000 µg/mL (≈ 3.78 to 22.7 mM)
solubility ([2]; organic solvent or mixture, thermodynamic from solid, Acetonitrile: 10% vol. DMSO, 20° C., read-out: Solubility at RT): 10000 to 30000 µg/mL (≈ 37.8 to 114 mM)
solubility ([2]; organic solvent or mixture, thermodynamic from solid, Acetonitrile: 10% vol. Water, 20° C., read-out: Solubility at RT): 14000 to 17000 µg/mL (≈ 53 to 64.3 mM)
solubility ([2]; organic solvent or mixture, thermodynamic from solid, Acetonitrile, 20° C., read-out: Solubility at RT): 1000 to 6000 µg/mL (≈ 3.78 to 22.7 mM)
solubility ([2]; organic solvent or mixture, thermodynamic from solid, DMSO, 20° C., read-out: Solubility at RT): > 400000 µg/mL
solubility ([2]; organic solvent or mixture, thermodynamic from solid, Dichloromethane, 20° C., read-out: Solubility at RT): < 1000 µg/mL
solubility ([2]; organic solvent or mixture, thermodynamic from solid, Ethyl Acetate, 20° C., read-out: Solubility at RT): < 1000 µg/mL
solubility ([2]; organic solvent or mixture, thermodynamic from solid, Heptane, 20° C., read-out: Solubility at RT): < 1000 µg/mL
solubility ([2]; organic solvent or mixture, thermodynamic from solid, Methanol: 5% vol. Water, 20° C., read-out: Solubility at RT): 1000 to 10000 µg/mL (≈ 3.78 to 37.8 mM)
solubility ([2]; organic solvent or mixture, thermodynamic from solid, Methanol: 10% vol. Water, 20° C., read-out: Solubility at RT): 1000 to 10000 µg/mL (≈ 3.78 to 37.8 mM)
solubility ([2]; organic solvent or mixture, thermodynamic from solid, Methanol, 20° C., read-out: Solubility at RT): 1000 to 6000 µg/mL (≈ 3.78 to 22.7 mM)
solubility ([2]; organic solvent or mixture, thermodynamic from solid, Tetrahydrofuran, 20° C., read-out: Solubility at RT): 1000 to 6000 µg/mL (≈ 3.78 to 22.7 mM)
solubility ([2]; organic solvent or mixture, thermodynamic from solid, Toluene, 20° C., read-out: Solubility at RT): < 1000 µg/mL
solubility ([2]; thermodynamic from solid, Water, 20° C., read-out: Solubility at RT): 1000 to 6000 µg/mL (≈ 3.78 to 22.7 mM)
solubility ([2]; thermodynamic from solid, water and common organic solvents, 20° C., read-out: Solubility): < 6000 µg/mL
solubility ([2]; toluene, 40 °C, organic solvent or mixture, thermodynamic from solid, read-out: Solubility at 40° C.): < 1000 µg/mL
solubility ([2]; water- or DMSO-containing binary solvent systems, 20° C.): moderate
Produced Crystal Form ([3]; 1,4-Dioxane:Water 90:10% vol., water activity 0.7, 5 °C, seeded with Form 3): Form 3
Produced Crystal Form ([3]; 1,4-Dioxane:Water 90:10% vol., water activity 0.7, 20 °C, seeded with Form 3): Form 1
Produced Crystal Form ([3]; 1,4-Dioxane:Water 96.5:3.5% vol., water activity 0.5, 7 °C, seeded with Form 3): Form 1
Produced Crystal Form ([3]; 1,4-Dioxane:Water 96.5:3.5% vol., water activity 0.5, 20 °C, seeded with Form 3): Form 1
Produced Crystal Form ([3]; 1,4-Dioxane:Water 99:1% vol., water activity 0.2, 20 °C, seeded with Form 3): Form 1
Water activity (αw) at which the form is the more stable ([3]; 20° C.): < 0.7
Produced Crystal Form ([3]; Water, water activity 1.0, 5 °C, Form 1 suspension seeded with Form 3): Form 3
Produced Crystal Form ([3]; Water, water activity 1.0, 20 °C, Form 1 suspension seeded with Form 3): Form 3
Water activity (αw) at which the form is the more stable ([3]; lower temperatures (5, and 7° C.)): < 0.5
DVS weight gain ([4]; between 0-90% RH, 25° C.): < 0.65 wt. %
Structure (SMILES): [2H]C1([2H])C(=O)NC(=O)[C@@]([2H])(N2Cc3c(N)cccc3C2=O)C1([2H])[2H] (single isomer, unassigned) [Form 1, 3-(4-amino-1-oxoisoindolin-2-yl)(piperidine-3,4,4,5,5-d5)-2,6-dione]
Physical stability by PXRD [1]: physically stable; also recorded: Form 1 as the major component, with only a trace of Form 3 being formed

Degradation by HPLC [5]: 2.5 % AUC
Structure (SMILES): [2H]C1([2H])C(=O)NC(=O)[C@@]([2H])(N2Cc3c(N)cccc3C2=O)C1([2H])[2H] [Amorphous D-(S)-lenalidomide]

Water activity (αw) at which the form is the more stable ([3]; 20° C.): > 0.7
DVS weight change ([4]; between 20-90% relative humidity, room temperature): no weight change
PXRD of residual solid after DVS ([4]; equilibrated at 0% RH for four hours): no change in solid form
Time physically stable ([1]; stored in a closed vial): at least 3 weeks
Structure (SMILES): [2H]C1([2H])C(=O)NC(=O)[C@@]([2H])(N2Cc3c(N)cccc3C2=O)C1([2H])[2H] [Form 3]
DVS behaviour ([4]; below 20% relative humidity): dehydrate and re-hydrate with a relatively small hysteresis
Physical stability by PXRD [1]: about half of the solid converted to Form 1; also recorded: partial conversion to Form 1
